Experimental findings from patent publication US10758512B2 (KOREA INSTITUTE OF SCIENCE AND TECHNOLOGY, priority 2016, dated 2020) are described below.

The structures appear in SMILES notation.

The test system of series [1] is dihydrotestosterone production in prostate cell DU145. Briefly: Dihydrotestosterone production-inhibitory activity in prostate cells (LC-MS/MS). The note with it: 48 hours. It is filed as cell-based, human. The method, then: CWR-22Rv1, LNCaP, DU145, and PC-3 cells which are human prostate cancer cell lines were cultured and maintained in an RPMI medium (Roswell Park Memorial Institute medium) supplemented with 10% heat-inactivated fetal bovine serum (FBS), 10 U/mL penicillin, and 100 μg/mL streptomycin under conditions of 5% carbon dioxide and 37° C. The internal standard compound was dissolved in dimethyl sulfoxide at a concentration of 10 μM, and 1 μL thereof was added to 150 μL of cell culture, and treated to a cartridge to perform sample pretreatment. […] Thereafter, re-solvation was performed by using 50% aqueous methanol, and products were kept frozen at −20° C. Mass spectrometry of the stored samples was performed by using an AB SCIEX API 4000 QTRAP tandem quadrupole mass spectrometer. HPLC system used herein was Agilent 1200 pump, and solvent A was water/acetonitrile (95:5 v/v, 0.1% formic acid), and solvent B was acetonitrile/water (95:5 v/v, 0.1% formic acid). For chromatography separation, a linear gradient from 40% B solvent to 100% B solvent in 8 minutes was used. An analysis column used herein was an XTerra MS C18 column (2.1 mm×150 mm, 3.5 μm) of Waters corporation, and analysis was performed while maintaining temperature at 25° C. and a flow rate of 0.2 mL/min. […]

The next series concerns DU145 cells. Briefly: Cell viability of human prostate cell line (EZCytox). The note with it: 48 hours, relative to DMSO control (FIG. 4). It is filed as cell-based. The method, then: With regard to the human prostate cancer cell line DU145 cultured and maintained in Experimental Example 1, the culture medium and prostate cell culture were mixed, and 1×10^4 cells were seeded in a 96-well plate, and then cultured for 24 hours under conditions of 5% carbon dioxide and 37° C.
After being stabilized, the cells were treated with only 0.2% dimethyl sulfoxide as a control group, treated with testosterone (100 ng/mL or 200 ng/mL) alone, or treated with testosterone and 10 μM finasteride as a positive control, or testosterone and 1 μM, 10 μM, or 20 μM fucoxanthin, and then cultured for 48 hours.
Thereafter, the media were collected for LC-MS/MS analysis, and then cell viability of prostate cells was measured in order to examine whether treatment of the compound influences growth of the prostate cells. The cell viability was determined by measuring absorbance at 450 nm after adding an EZCytox reagent (Daeil Lab Service, Korea) and culturing for 1-4 hours under conditions of 5% carbon dioxide and 37° C. The cell viability was calculated as a percentage relative to cell viability of the control group treated with dimethyl sulfoxide (DMSO) only.

On to `CC(C)(C)NC(=O)[C@H]1CC[C@H]2[C@@H]3CC[C@H]4NC(=O)C=C[C@]4(C)[C@H]3CC[C@]12C` [finasteride], for which the dihydrotestosterone production result in series [1] (DU145, testosterone 100 ng/mL plus finasteride 10 μM, vs testosterone alone (FIG. 3)) was “remarkably inhibited”. Besides, the “cell viability of prostate cells” value in the series with DU145 cells (DU145, testosterone plus finasteride 10 μM) was “did not influence cell viability”.
In the case of `CC(=O)O[C@H]1CC(C)(C)C(=C=C/C(C)=C/C=C/C(C)=C/C=C/C=C(C)/C=C/C=C(\C)C(=O)C[C@@]23O[C@]2(C)C[C@@H](O)CC3(C)C)[C@](C)(O)C1` [fucoxanthin], the dihydrotestosterone production entry in series [1] (DU145, testosterone 100 ng/mL plus fucoxanthin 1 μM, 10 μM, 20 μM, vs testosterone alone, inhibition increased with concentration (FIG. 3)) is recorded as “remarkably inhibited”. Also, the “cell viability of prostate cells” value in the series on DU145 cells (DU145, testosterone plus fucoxanthin 1 μM, 10 μM or 20 μM) is recorded as “did not influence cell viability”.
